In patent US10835556B2, “Hydrolyzed tetravalent metal salts and methods of biofilm inhibition” (THE BOARD OF TRUSTEES OF THE UNIVERSITY OF ILLINOIS, priority 2018, dated 2020):
Several values for one entry are separate records, joined by “and”; a condition that tells them apart may be missing. Identical values can stand only once. Entries after “also recorded” stand apart in the source; their conditions may differ. Like-named read-outs stand apart in the source and are kept apart here.

How the values were obtained:
S. sobrinus 6715 = test: In vitro static biofilm inhibition assay (crystal violet); assay type: cell-based, Streptococcus sobrinus; conditions: 125 μM; for inhibition of biofilm formation of S. sobrinus 6715: BHI 1% sucrose, 20 h
S. mutans UA159 = test: In vitro static biofilm inhibition assay (crystal violet), incl. dose response study; assay type: cell-based, Streptococcus mutans
[1] = system: human telomerase immortalized gingival keratinocytes; conditions: 24 h incubation, DermaLife K keratinocyte culture media, MTS assay
[2] = system: all strains of bacteria tested; set-up: key to the marks not given beside the values; conditions: 1 mM-metal
Experimental: Tooth application may involve exposure to bacteria outside the oral cavity, including the skin and digestive system. CAN, CAS and AgNO3 (1 mM-metal) were tested for their effect on in vitro planktonic growth of bacteria under the conditions listed in FIG. 9.

S. sobrinus = conditions: 500 μM, 6 h on 6 h-grown biofilm
Experimental: (§1) Potential mechanisms of biofilm inhibition by CeO2-NP were first explored by testing the effect of CAS and CAN on planktonic growth (FIG. 8). […] To further explore potential extracellular mechanisms of biofilm inhibition, dispersal assays were carried out on existing S. mutans and S. sobrinus biofilms grown statically for 6 h as described above (96-well plate, BHI, 1% sucrose). After 6 h, the planktonic cells were removed, the adherent biofilm rinsed (0.9% NaCl) and replaced with fresh 200 μL BHI (positive control) or BHI/500 μM CAS (test wells). All wells were allowed to incubate an additional 6 h after which the adherent biofilm was washed, stained and quantified via UV-Vis analysis (37). Biofilm dispersal was calculated similar to inhibition in Equation I via UV-Vis.

S. mutans [3] = conditions: 500 μM, 6 h on 6 h-grown biofilm
Experimental: as §1

S. mutans [4] = assay type: cell-based, Streptococcus mutans

Question: For O=S(=O)([O-])[O-].[Zn+2] [ZnSO4, reference compound], which “effect on biofilm growth of S. sobrinus (in words)” value (S. sobrinus 6715) is on record?
Answer: incapable of limiting biofilm growth

Question: What about the “effect on S. mutans biofilm formation (in words)” value (S. mutans UA159; 125 μM (metal ion/Ce), BHI 1% sucrose, 37° C., 5% CO2, 20 h) of the same compound?
Answer: slight increase in biofilm growth

Question: Which “inhibition of biofilm formation of S. sobrinus 6715” value (S. sobrinus 6715) does the source give for ceric ammonium sulfate [CAS] here?
Answer: 35%

Question: And the “inhibition of S. mutans biofilm growth” value (S. mutans UA159; 125 μM)?
Answer: 40%

Question: What about the “toxicity on gingival keratinocytes as compared to AgNO3” value [1] of the same compound?
Answer: reduced toxicity

Question: What about the “visible in vitro planktonic growth of bacteria” value [2] of the same compound?
Answer: ++

Question: What about the “biofilm dispersal, S. sobrinus” value (S. sobrinus) of the same compound?
Answer: 8%

Question: And the “biofilm dispersal, S. mutans” value (S. mutans [3])?
Answer: 6%

Question: What about the “effect on planktonic growth of S. mutans” value (S. mutans [4]) of the same compound?
Answer: did not inhibit; also recorded: non-significant growth effect; also recorded: Non-inhibitory effect

Question: Which “inhibition of biofilm formation of S. sobrinus 6715” value (S. sobrinus 6715) does the source give for O=[N+]([O-])[O-].O=[N+]([O-])[O-].O=[N+]([O-])[O-].O=[N+]([O-])[O-].O=[N+]([O-])[O-].O=[N+]([O-])[O-].[Ce+4].[NH4+].[NH4+] [CAN, ceric ammonium nitrate] here?
Answer: 44%

Question: What about the “inhibition of S. mutans biofilm growth” value (S. mutans UA159; 125 µM) of the same compound?
Answer: 51% and ~40%

Question: And the “toxicity on gingival keratinocytes as compared to AgNO3” value [1]?
Answer: reduced toxicity

Question: What about the “visible in vitro planktonic growth of bacteria” value [2] of the same compound?
Answer: ++

Question: What about the “effect on planktonic growth of S. mutans” value (S. mutans [4]) of the same compound?
Answer: did not inhibit; also recorded: slight growth lag; also recorded: slight lagging effect; also recorded: Non-inhibitory effect

Question: N.N.O=S(=O)(O)O [(NH4)2SO4, ammonium sulfate, reference compound] was tested. Which “activity in limiting planktonic growth” value (S. mutans [4]) did it give?
Answer: not active

Question: What does the source list for O=[N+]([O-])[O-].O=[N+]([O-])[O-].O=[N+]([O-])[O-].[Ce+3] [Ce(NO3)3, Cerium (III) nitrate, reference compound]?
Answer: effect on biofilm growth of S. sobrinus (in words) (S. sobrinus 6715): incapable of limiting biofilm growth; effect on S. mutans biofilm formation (in words) (S. mutans UA159): slight increase in biofilm growth; also recorded: inactive

Question: How did the IC50 (S. mutans UA159; read-out: 50% inhibitory concentration (IC50) of biofilm formation) turn out when N.N.O=[N+]([O-])O.O=[N+]([O-])O.O=[N+]([O-])[O-].O=[N+]([O-])[O-].O=[N+]([O-])[O-].O=[N+]([O-])[O-].[Ce+4] [CAN, ceric ammonium nitrate] was run?
Answer: 137 µM

Question: Which results are given for O=[N+]([O-])[O-].[Ag+] [AgNO3, Silver Nitrate, reference compound]?
Answer: effect on biofilm growth of S. sobrinus (in words) (S. sobrinus 6715): incapable of limiting biofilm growth; effect on S. mutans biofilm formation (in words) (S. mutans UA159): slight increase in biofilm growth
